US11230526B1, “Cylcoalkenyl derivatives useful as agonists of the GPR120 and/or GPR40 receptors” (Janssen Pharmaceutica NV, priority 2018, dated 2022)

Tests used:
Human GPR120 short form = molecular target: T1, Human GPR120 short form (Homo sapiens, UniProt Q5NUL3); test: Human GPR120 calcium flux assay, Procedure Calcium B (4200 cells/well); type: cell-based
T1 construct: expressed in transfected cells
T1 sequence (Q5NUL3 1-361): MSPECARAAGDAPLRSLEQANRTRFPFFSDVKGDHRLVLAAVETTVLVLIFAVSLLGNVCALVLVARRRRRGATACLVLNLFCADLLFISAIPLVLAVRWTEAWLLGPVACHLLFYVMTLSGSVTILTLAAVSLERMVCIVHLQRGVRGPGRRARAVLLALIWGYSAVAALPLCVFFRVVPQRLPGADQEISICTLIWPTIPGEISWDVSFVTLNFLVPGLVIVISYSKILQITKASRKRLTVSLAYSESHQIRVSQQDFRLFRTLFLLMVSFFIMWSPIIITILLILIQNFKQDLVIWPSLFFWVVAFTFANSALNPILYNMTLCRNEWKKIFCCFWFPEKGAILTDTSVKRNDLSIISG
Outline: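 HEK293 cells stably expressing human GPR120 (NM_001195755.1), 4200 cells/well, starved 1 h and loaded with Fluo-4 NW plus probenecid. Ligand-evoked calcium flux read on FLIPR for 300 s after a 10 s baseline. RFU = Fmax−Fmin; EC50 from four-parameter concentration-response fit.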

human GPR40 = molecular target: T2, human GPR40 (Homo sapiens, UniProt O14842); test: GPR40 calcium flux assay, human GPR40; type: cell-based; details: HEK293 cells stably expressing GPR40; table does not say human or rat
T2 construct: expressed in transfected cells
Outline: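 Cells preincubated 1 h at 37° C. in HBSS, 20 mM HEPES, 0.1% BSA, then Fluo 8 calcium dye 30 min at 37° C. and 15 min at room temperature.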

T2 sequence (O14842 whole entry): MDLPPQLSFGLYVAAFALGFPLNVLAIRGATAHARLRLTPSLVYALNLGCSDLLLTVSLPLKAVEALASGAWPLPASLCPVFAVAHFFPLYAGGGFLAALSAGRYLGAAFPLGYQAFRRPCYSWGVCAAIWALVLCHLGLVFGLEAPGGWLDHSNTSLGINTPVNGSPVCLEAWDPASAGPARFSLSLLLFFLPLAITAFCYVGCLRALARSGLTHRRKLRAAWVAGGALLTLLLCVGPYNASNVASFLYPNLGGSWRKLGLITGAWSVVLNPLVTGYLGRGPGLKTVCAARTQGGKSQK

Compound	EC50 (Human GPR120 short form) [nM]	EC50 (human GPR40) [nM]
[2H]C([2H])([2H])c1ccc(C2=C(COc3cc(C)c(CCC(=O)O)cc3F)CCC2)cc1 [Compound 303-D, 3-[5-fluoro-2-methyl-4-[[2-[4-(trideuteriomethyl)phenyl]cyclopenten-1-yl]methoxy]phenyl]Propanoic Acid]	124	2370
Cc1cc(OCC2=C(c3ccc(F)cc3)CCC2)c(F)cc1CCC(=O)O [Compound 304, 3-[5-fluoro-4-[[2-(4-fluorophenyl)cyclopenten-1-yl]methoxy]-2-methyl-phenyl]Propanoic Acid]	502	1110
Cc1ccc(C2=C(COc3ccc(CCC(=O)O)c(C(F)(F)F)c3)CCC2)cc1 [Compound 307, 3-[4-[[2-(p-tolyl)cyclopenten-1-yl]methoxy]-2-(trifluoromethyl)phenyl]Propanoic Acid]	288	516
Cc1ccc(C2=C(COc3ccc(CCC(=O)O)c(Cl)c3)CCC2)cc1 [Compound 310, 3-[2-chloro-4-[[2-(p-tolyl)cyclopenten-1-yl]methoxy]phenyl]Propanoic Acid]	209	1120
O=C(O)CCc1ccc(OCC2=C(c3ccc(OC(F)(F)F)cc3)CCC2)cc1Cl [Compound 311, 3-[2-chloro-4-[[2-[4-(trifluoromethoxy)phenyl]cyclopenten-1-yl]methoxy]phenyl]Propanoic Acid]	> 5000	792
O=C(O)CCc1ccc(OCC2=C(c3ccccc3Cl)CCC2)cc1C(F)(F)F [Compound 313, 3-[4-[[2-(2-chlorophenyl)cyclopenten-1-yl]methoxy]-2-(trifluoromethyl)phenyl]Propanoic Acid]	855	191
Cc1cc(OCC2=C(c3ccc(Cl)cc3)C(C)CC2)c(F)cc1CCC(=O)O (stereo not shown) [Compound 317, 3-[4-[[2-(4-chlorophenyl)-3-methyl-cyclopenten-1-yl]methoxy]-5-fluoro-2-methyl-phenyl]Propanoic Acid]	866	746
O=C(O)CCc1ccc(OCC2=C(Cc3ccccc3)CCC2)cc1C(F)(F)F [Compound 319, 3-[4-[(2-benzylcyclopenten-1-yl)methoxy]-2-(trifluoromethyl)phenyl]Propanoic Acid]	623	55
CC1CCC(COc2ccc(CCC(=O)O)c(Cl)c2)=C1c1ccccc1 (stereo not shown) [Compound 320, 3-[2-chloro-4-[(3-methyl-2-phenyl-cyclopenten-1-yl)methoxy]phenyl]Propanoic Acid]	998	543
CC1CCC(COc2ccc(CCC(=O)O)cc2)=C1c1ccccc1 (stereo not shown) [Compound 321, 3-[4-[(3-methyl-2-phenyl-cyclopenten-1-yl)methoxy]phenyl]Propanoic Acid]	733	2640
Cc1cc(OCC2=C(c3ccccc3)C(C)CC2)c(F)cc1CCC(=O)O (stereo not shown) [Compound 323, 3-[5-fluoro-2-methyl-4-[(3-methyl-2-phenyl-cyclopenten-1-yl)methoxy]phenyl]Propanoic Acid]	1070	2230
Cc1ccc(C2=C(COc3cc(C)c(CCC(=O)O)cc3F)CCC2)cc1 [Compound 326, 3-[5-fluoro-2-methyl-4-[[2-(p-tolyl)cyclopenten-1-yl]methoxy]phenyl]Propanoic Acid]	157	4780
CC1CCC(COc2ccc(CCC(=O)O)c(Cl)c2)=C1c1ccc(Cl)cc1 (stereo not shown) [Compound 327, 3-[2-chloro-4-[[2-(4-chlorophenyl)-3-methyl-cyclopenten-1-yl]methoxy]phenyl]Propanoic Acid]	983	205
Cc1ccc(C2=C(COc3ccc(CCC(=O)O)c(C(F)(F)F)c3)CCC2)c(C(C)C)c1 [Compound 331, 3-[4-[[2-(2-isopropyl-4-methyl-phenyl)cyclopenten-1-yl]methoxy]-2-(trifluoromethyl)phenyl]Propanoic Acid]	> 5000	3340
CC1CCC(c2ccc(Cl)cc2)=C1COc1ccc(CCC(=O)O)cc1 (stereo not shown) [Compound 332, 3-[4-[[2-(4-chlorophenyl)-5-methyl-cyclopenten-1-yl]methoxy]phenyl]Propanoic Acid]	191	1300

Results, then the molecule that gave them:

EC50 (Human GPR120 short form) [nM]	EC50 (human GPR40) [nM]	Compound
1120	347	CC1CCC(COc2ccc(CCC(=O)O)c(C(F)(F)F)c2)=C1c1ccccc1 (stereo not shown) [Compound 306, 3-[4-[(3-methyl-2-phenyl-cyclopenten-1-yl)methoxy]-2-(trifluoromethyl)phenyl]Propanoic Acid]
> 5000	899	O=C(O)CCc1ccc(OCC2=C(c3ccc(OC(F)(F)F)cc3)CCC2)cc1C(F)(F)F [Compound 308, 3-[4-[[2-[4-(trifluoromethoxy)phenyl]cyclopenten-1-yl]methoxy]-2-(trifluoromethyl)phenyl]Propanoic Acid]
612	402	Cc1cccc(C2=C(COc3ccc(CCC(=O)O)c(C(F)(F)F)c3)CCC2)c1 [Compound 312, 3-[4-[[2-(m-tolyl)cyclopenten-1-yl]methoxy]-2-(trifluoromethyl)phenyl]Propanoic Acid]
765	461	Cc1cc(OCC2=C(Cc3ccccc3)CCC2)c(F)cc1CCC(=O)O [Compound 314, 3-[4-[(2-benzylcyclopenten-1-yl)methoxy]-5-fluoro-2-methyl-phenyl]Propanoic Acid]
185	> 5000	Cc1cc(CCC(=O)O)ccc1OCC1=C(Cc2ccccc2)CCC1 [Compound 315, 3-[4-[(2-benzylcyclopenten-1-yl)methoxy]-3-methyl-phenyl]Propanoic Acid]
2430	164	CC1CCC(COc2ccc(CCC(=O)O)c(C(F)(F)F)c2)=C1c1ccc(Cl)cc1 (stereo not shown) [Compound 316, 3-[4-[[2-(4-chlorophenyl)-3-methyl-cyclopenten-1-yl]methoxy]-2-(trifluoromethyl)phenyl]Propanoic Acid]
1140	328	O=C(O)CCc1ccc(OCC2=C(Cc3ccccc3)CCC2)cc1 [Compound 322, 3-[4-[(2-benzylcyclopenten-1-yl)methoxy]phenyl]Propanoic Acid]
> 5000	2770	Cc1cc(OCC2=C(c3ccc(OC(F)(F)F)cc3)CCC2)c(F)cc1CCC(=O)O [Compound 325, 3-[5-fluoro-2-methyl-4-[[2-[4-(trifluoromethoxy)phenyl]cyclopenten-1-yl]methoxy]phenyl]Propanoic Acid]
307	639	CC1CCC(COc2ccc(CCC(=O)O)cc2)=C1c1ccc(Cl)cc1 (stereo not shown) [Compound 328, 3-[4-[[2-(4-chlorophenyl)-3-methyl-cyclopenten-1-yl]methoxy]phenyl]Propanoic Acid]
1600	101	O=C(O)CCc1ccc(OCC2=C(Cc3ccccc3)CCC2)cc1Cl [Compound 329, 3-[4-[(2-benzylcyclopenten-1-yl)methoxy]-2-chloro-phenyl]Propanoic Acid]
492	> 5000	O=C(O)CCc1cc(F)c(OCC2=C(Cc3ccccc3)CCC2)c(F)c1 [Compound 330, 3-[4-[(2-benzylcyclopenten-1-yl)methoxy]-3,5-difluoro-phenyl]Propanoic Acid]
